Assays:
[1] = Serum and milk calcium in rats fed a 5-HTP supplemented diet; type: in vivo; details: rats fed 0.2% 5-HTP diet from d13 pregnancy, vs control diet
Protocol: FIG. 2 depicts the serum and milk calcium concentrations in rats fed 0.2% 5-HTP (n=15) from d13 pregnancy-d9 lactation compared to rats fed a control (n=15) breeder diet at (A) day 1 of lactation and (B) day 9 of lactation.
Based on the foregoing results, studies were conducted to establish, in practice, that feeding a diet supplemented with 5-HTP would elevate circulating calcium levels in lactating animals. Serum and milk calcium concentrations were measured in rats fed a diet supplemented with 0.2% 5-HTP (n=15) from d13 pregnancy-d9 lactation, compared to rats fed a control (n=15) diet. Serum calcium concentrations were elevated by 5-HTP supplementation on dl of lactation, and subsequently, milk calcium levels were elevated by 5-HTP on d9 of lactation (FIG. 2).

[2] = Circulating 5-HT and PTHrP in rats fed a 5-HTP supplemented diet; type: in vivo; details: rats fed 0.2% 5-HTP diet from d13 pregnancy through d9 lactation vs control breeder diet
Protocol: FIG. 1 depicts the circulating levels of (A) serum 5-HT and (B) plasma PTHrP in rats fed 0.2% 5-HTP from d13 pregnancy through d9 lactation compared to rats fed a control breeder diet.
Based on the foregoing results, studies were conducted to establish, in practice, that feeding a diet supplemented with 5-HTP would elevate circulating levels of serotonin (5-HT) and PTHrP. Rats were fed a diet supplemented with 0.2% 5-HTP, and circulating levels of 5-HT (serum) and PTHrP (plasma) in the rats fed 0.2% 5-HTP from d13 pregnancy through d9 lactation were compared to rats fed a control breeder diet.

[3] = test system: PTHrP; test: 5-HTP injection rescue of TPH1 knockout mice, plasma PTHrP (IRMA); type: in vivo; details: TPH1 knockout mice injected with 5-HTP; P<0.0001, R=0.92
Protocol: TPH1^−/−, and corresponding wild type control animals (C57BL/6J genetic background) were bred and maintained in our animal facility. All experiments were performed under protocols approved by the University of Cincinnati Institutional Animal Care and Use Committee. Plasma was collected for PTHrP assay from non-lactating wild type mice and both wild type and TPH1^−/− animals on day 10 of lactation. Mammary gland tissues (#4 glands counted from most rostral) were collected for immunostaining from TPH1^−/− animals and wild type controls on day 10 of lactation, and were fixed in 4% paraformaldehyde, before being paraffin embedded and sectioned.
PTHrP IRMA. Plasma PTHrP levels were measured using a two-site immunoradiometric assay specific for PTHrP 1-86 (Becton Dickinson), following the manufacturer's instructions. The detection limit (blank serum+1 standard deviation) was 0.3 pM under the conditions of this assay.
The conversion of L-tryptophan to 5-hydroxytryptophan (5-HTP) is the rate-limiting step in 5-HT synthesis; therefore we injected 5-HTP to bypass the enzyme deficiency in TPH1 mice, and measured PTHrP plasma levels.

[4] = test system: primary bovine mammary epithelial cells; test: PTHrP gene expression in primary bovine mammary epithelial cells in floating collagen gels (real-time RT-PCR); type: cell-based; details: primary bovine mammary epithelial cells embedded in floating collagen gels
Excerpt: (§1) Cell culture. Primary bovine mammary epithelial cells grown in collagen gels were induced to differentiate by release of the gel from the substratum, and treating with lactogenic hormones as described (15,31). The mouse mammary epithelial cells (HC11) were maintained under growth medium conditions, and lactogen-induced by treatment of 3 day confluent cultures with prolactin, insulin, and cortisol as previously described (17).
Primary bovine mammary epithelial cells (pBMEC) were obtained as a generous gift from Dr. Robert Collier at the University of Arizona and cultured as previously described (15, 31).
Quantitative real-time RT-PCR amplification. Total RNA was isolated using TRIreagent® (Molecular Research) following manufacturer's procedures. RNA quality was determined through spectrophometric methods on the Nanodrop 2000 (Thermo Scientific). A total of […] was reverse transcribed using the QuantiTect reverse transcription kit (Qiagen). Quantitative real-time RT-PCR was performed using the Applied Biosystems Step One Plus system (Applied Biosystems) using fast SYBR green master mix (Applied Biosystems). The following conditions were utilized: 95′C for 20 sec. followed by 40 cycles of 95′C for 3 sec., 60′C for 30 sec. […]

[5] = test system: HC11 cells; test: PTHrP gene expression in lactogen-treated HC11 cells (real-time RT-PCR); type: cell-based, mouse; details: lactogen-treated rodent HC11 cells
Excerpt: as §1
Quantitative real-time RT-PCR amplification. Total RNA was isolated using TRIreagent® (Molecular Research) following manufacturer's procedures. RNA quality was determined through spectrophometric methods on the Nanodrop 2000 (Thermo Scientific). A total of […] was reverse transcribed using the QuantiTect reverse transcription kit (Qiagen). Quantitative real-time RT-PCR was performed using the Applied Biosystems Step One Plus system (Applied Biosystems) using fast SYBR green master mix (Applied Biosystems). The following conditions were utilized: 95′C for 20 sec. followed by 40 cycles of 95′C for 3 sec., 60′C for 30 sec.
To determine whether PTHrP expression in mammary epithelial cells was directly responsive to 5-HT two cell models of lactogenic mammary epithelium were studied: lactogen-treated rodent HC11 cells, and primary bovine mammary epithelial cells embedded in floating collagen gels. […]

[6] = test system: vascular smooth muscle cells; details: previous study; cited from earlier work
[7] = test system: mammary cells; test: PTHrP induction by prolactin in mammary epithelium cell cultures; type: cell-based; details: conventional cell cultures of mammary epithelium
Excerpt: PTHrP is undetectable in the circulation except during lactation, in advanced metastatic disease, or in patients with hyperprolactinemia.

N[C@@H](Cc1c[nH]c2ccc(O)cc12)C(=O)O [5-HTP, 5-Hydroxytryptophan]
milk calcium levels ([1]; d9 of lactation): elevated
serum calcium concentrations ([1]; dl of lactation): elevated
circulating 5-HT (serum) [2]: elevation
circulating PTHrP (plasma) [2]: elevation
plasma PTHrP [3]: time-dependent increase

NCCc1c[nH]c2ccc(O)cc12 [5-HT, serotonin]
PTHrP gene expression induction [4]: 20 fold
PTHrP gene expression induction [5]: 8 fold
PTHrP expression [6]: induced

B1: prolactin (protein, UniProt P01236 29-227, looked up)
Prolactin: LPICPGGAARCQVTLRDLFDRAVVLSHYIHNLSSEMFSEFDKRYTHGRGFITKAINSCHTSSLATPEDKEQAQQMNQKDFLSLIVSILRSWNEPLYHLVTEVRGMQEAPEAILSKAVEIEEQTKRLLEGMELIVSQVHPETKENEIYPVWSGLPSLQMADEESRLSAYYNLLHCLRRDSHKIDNYLKLLKCRIIHNNNC
notes: prolactin hormone
PTHrP induction [7]: did not induce

From US20170128418A1, “COMPOSITIONS AND METHODS FOR IMPROVING LACTATION” (UNIVERSITY OF CINCINNATI, priority 2012, published 2017)
